Measured values: PMC6511888, “Synthesis, Biological Evaluation, and Molecular Modeling Studies of New Thiadiazole Derivatives as Potent P2X7 Receptor Inhibitors” (Frontiers in Chemistry, 2019)

Experiments:
P2X3R = experiment: α,β-meATP-induced [Ca2+]i shift; type: cell-based; settings: 100 μM
Protocol: (§1) Mouse peritoneal macrophages, PC12 cells, J774 cells, and HEPG2 cells were analyzed by fluorescence microscopy to measure the intracellular Ca^2+ concentrations ([Ca^2+]i). Cells were incubated with 2 μM Fura-2-AM (Molecular Probes) for 30 min, and the [Ca^2+]i mobilization was measured in the F340/F380 ratios with a FlexStation 3 multimode microplate reader (Molecular Devices). Cells were plated in translucent 96-well plates (BD Falcon) for 15 min and then washed and incubated in a saline solution with 150 NaCl, 5 KCl, 1 MgCl2, 1 CaCl2, and 10 HEPES (pH 7.4) for 30 min before measurements of [Ca^2+]i. The Ca^2+ influx was induced by stimulating cells with P2 receptor agonists. P2 receptor antagonists were added 10 min before P2 receptor agonist addition. […] Ionomycin was considered a positive control, and the other recordings were normalized in relation to the AUC.

[1] = tested on: carrageenan-induced paw edema; experiment: Carrageenan-induced paw edema in mice; type: in vivo, mouse; settings: 9f 0.001–1 mg/kg intraperitoneally 1 h before carrageenan, edema measured after 60 min
Protocol: (§2) Our protocols using Swiss Webster mice 4–5 weeks old adhered to the Ethical Principles in Animal Experimentation adopted by the Brazilian College of Animal Experimentation and approved by the FIOCRUZ Research Ethics Committee (Faria et al., [2018]) (number LW-5814). Mouse paw edema was stimulated with carrageenan (300 μg/paw) saline suspension for 60 min or ATP (10 mg/paw) for 30 min. Treatment with diclofenac (100 μg/kg), oxidized ATP (100 μg/kg), and analog 9f (0.001–1 mg/kg) was intraperitoneally administered 60 min prior to the […] administration of carrageenan or ATP. A plethysmometer (UGO Basil, Italy) was used to measure the edema before inductor injection, and the relative paw edema increased after carrageenan or ATP action.

P2X7R = molecular target: T1, P2X7R (Mus musculus, UniProt Q9Z1M0); experiment: Whole-cell patch clamp, ATP-induced ionic currents in peritoneal macrophages; type: cell-based; settings: fixed 500 nM 9f; ATP 100 μM to 25 mM; whole-cell configuration
T1 construct: plated for 24 h before dye uptake assays, whole-cell patch clamp experiments, and IL-1β release assays; endogenous in cells; host or cells: mouse (Swiss Webster) peritoneal macrophages
T1 sequence (Q9Z1M0 1-595): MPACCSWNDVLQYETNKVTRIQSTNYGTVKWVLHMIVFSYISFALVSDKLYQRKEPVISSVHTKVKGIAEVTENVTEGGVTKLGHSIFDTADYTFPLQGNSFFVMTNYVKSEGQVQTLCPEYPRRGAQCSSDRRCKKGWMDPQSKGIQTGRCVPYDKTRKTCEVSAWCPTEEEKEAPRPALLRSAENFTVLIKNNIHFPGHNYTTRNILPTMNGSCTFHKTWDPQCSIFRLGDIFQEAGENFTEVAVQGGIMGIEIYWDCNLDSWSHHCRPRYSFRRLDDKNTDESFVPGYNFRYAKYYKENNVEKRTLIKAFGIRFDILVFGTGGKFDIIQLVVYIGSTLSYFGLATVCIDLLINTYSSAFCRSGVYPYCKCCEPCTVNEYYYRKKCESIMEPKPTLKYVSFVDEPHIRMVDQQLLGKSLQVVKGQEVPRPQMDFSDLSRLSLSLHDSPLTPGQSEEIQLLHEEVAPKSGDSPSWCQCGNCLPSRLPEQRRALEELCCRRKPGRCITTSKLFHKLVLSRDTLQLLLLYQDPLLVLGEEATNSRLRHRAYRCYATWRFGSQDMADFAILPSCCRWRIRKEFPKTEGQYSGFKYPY
Protocol: The whole-cell configuration was used in peritoneal macrophages as previously described (Faria et al., [2005]). All the experiments used bath and pipette solutions with a series resistance set as 6–11 MΩ. Ionic currents with amplitudes < 1,500 pA were not compensated; however, ionic currents above this level were compensated by 88%. The cell capacitance for peritoneal macrophages was (19 ± 1 pF; n = 86), and the recordings were obtained at a holding potential of −60 mV at 37°C.
The saline composition was as follows (in mM): 150 NaCl, 5 KCl, 1 MgCl2, 1 CaCl2, and 10 HEPES (pH 7.4) for the bath solution and 150 KCl, 5 NaCl, 1 MgCl2, 10 HEPES, and 0.1 EGTA (pH 7.4) for the pipette solution (Faria et al., [2018]).
[…] A perfusion chamber (RC-24 chamber, Warner Instrument Corp) operating at a rate of 1 ml/min was used in all experiments (Faria et al., [2018]).

P2Y13R = molecular target: T2, P2Y13R (Homo sapiens, UniProt Q9BPV8); experiment: ADPβS-induced [Ca2+]i shifts in HEP2G cells; type: cell-based; settings: concentration not given
T2 construct: endogenous in cells; host or cells: HEP2G (HEPG2) cells
T2 sequence (Q9BPV8 1-354): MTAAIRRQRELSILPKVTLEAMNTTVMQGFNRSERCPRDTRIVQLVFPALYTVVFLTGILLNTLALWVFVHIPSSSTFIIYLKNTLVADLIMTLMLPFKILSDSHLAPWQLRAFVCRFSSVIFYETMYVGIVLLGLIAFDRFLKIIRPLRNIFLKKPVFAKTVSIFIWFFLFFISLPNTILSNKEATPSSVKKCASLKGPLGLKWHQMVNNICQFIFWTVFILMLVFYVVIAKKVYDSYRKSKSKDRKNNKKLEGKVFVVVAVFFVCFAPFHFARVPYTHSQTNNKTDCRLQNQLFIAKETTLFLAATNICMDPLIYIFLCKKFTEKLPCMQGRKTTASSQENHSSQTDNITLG
Protocol: as §1

P2X1R = molecular target: T3, P2X1R (Mus musculus, UniProt P51576); experiment: β,γ-meATP-induced intracellular Ca2+ mobilization in J774 cells; type: cell-based; settings: 100 μM
T3 construct: endogenous in cells; host or cells: J774 cells
T3 sequence (P51576 1-399): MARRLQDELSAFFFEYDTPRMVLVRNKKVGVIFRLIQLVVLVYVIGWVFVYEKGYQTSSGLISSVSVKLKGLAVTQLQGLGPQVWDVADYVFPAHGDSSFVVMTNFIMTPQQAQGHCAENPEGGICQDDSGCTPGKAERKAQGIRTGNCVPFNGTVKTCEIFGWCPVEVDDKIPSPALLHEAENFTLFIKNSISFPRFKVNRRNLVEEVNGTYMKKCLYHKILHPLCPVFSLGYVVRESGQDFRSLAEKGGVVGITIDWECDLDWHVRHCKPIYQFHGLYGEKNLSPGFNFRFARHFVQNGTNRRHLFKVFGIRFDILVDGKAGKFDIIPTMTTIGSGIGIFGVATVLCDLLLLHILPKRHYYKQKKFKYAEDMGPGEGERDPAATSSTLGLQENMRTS
Protocol: as §1

ATP-induced paw edema = ATP-induced paw edema in mice; type: in vivo, mouse; settings: 9f 0.001–1 mg/kg intraperitoneally 1 h before ATP, edema measured after 30 min
Protocol: as §2

Structure (SMILES) | Effect on activity of P2X3R agonist α,β-meATP (P2X3R) | Carrageenan-induced paw edema [1] | EC50 of the ATP dose–response curve with fixed inhibitor vs ATP alone (P2X7R) | Effect on ADPβS-induced [Ca2+]i shifts (P2Y13R) | Effect on β,γ-meATP-induced intracellular Ca2+ mobilization (P2X1R) | ATP-induced paw edema (ATP-induced paw edema)
CCOC(=O)c1cnn(-c2nnc(-c3ccccc3Cl)s2)c1N [Compound 9f] | did not reduce | dose-dependently decreased | higher | did not inhibit | did not reduce | dose-dependently decreased
COc1ccc(CC(=O)NC(NC(=NC#N)Nc2cccc3ncccc23)C(C)(C)C)cc1OC (stereo not shown) [Compound A740003, N-(1-{[(cyanoimino)(5-quinolinylamino)methyl]amino}-2,2-dimethylpropyl)-2-(3,4-dimethoxyphenyl)acetamide] |  |  |  | did not inhibit |  | 
